Laboratory results: patent publication US11180462B2, “Microbiocidal oxadiazole derivatives” (SYNGENTA PARTICIPATIONS AG, priority 2015, dated 2021)

Experiments:
[1] = tested on: Puccinia recondita f. Sp. Tritici; assay: Fungicidal activity against Puccinia recondita f. sp. tritici / wheat / leaf disc curative (brown rust); type: in vivo; conditions: foliar, 24 h, 200 ppm in the applied formulation, wheat leaf segments, curative (applied 1 day after inoculation), compared to untreated control leaf disks, read-out: disease control
Outline: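 % disease control vs untreated, scored 6–8 d post-application. Wheat cv. Kanzler segments, spore-inoculated, dark 19° C/75% RH; formulated cpd applied 1 d post-inoc; then 19° C, 75% RH, 12 h L/12 h D.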

[2] = tested on: Glomerella lagenarium (Colletotrichum lagenarium); assay: Fungicidal activity against Glomerella lagenarium (Colletotrichum lagenarium) liquid culture / cucumber / preventative (anthracnose); type: cell-based; conditions: Colletotrichum orbiculare; 20 ppm in the applied formulation; liquid culture (PDB), growth inhibition measured photometrically after 3 to 4 days; compared to untreated control; read-out: disease control
Outline: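 Percent activity against the untreated check was derived from photometric growth measurements made 2 to 7 days after conidia in potato dextrose broth were combined with compound at 20 ppm. Cultures were kept dark at 24 °C and 96% humidity.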

[3] = tested on: Puccinia recondita f. Sp. Tritici; assay: Fungicidal activity against Puccinia recondita f. sp. tritici / wheat / leaf disc preventative (brown rust); type: in vivo; conditions: foliar, 200 ppm in the applied formulation, wheat leaf segments, preventative, compared to untreated control leaf disks, read-out: disease control
Outline: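 Percent disease control relative to untreated check segments is scored once disease develops, 7 to 9 days after application. Wheat cv. Kanzler segments receive compound spray (200 ppm in formulation) one day before spore inoculation, then sit at 19° C. and 75% rh under 12 h light/12 h dark.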

[4] = tested on: Phakopsora Pachyrhizi; assay: Fungicidal activity against Phakopsora pachyrhizi / soybean / leaf disc preventative (Asian soybean rust); type: in vivo; conditions: foliar, 200 ppm in the applied formulation, soybean leaf disks, compared to untreated control leaf disks, read-out: disease control
Outline: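 Scored 12 to 14 days post-application as percent control relative to untreated check discs, rust spores were sprayed under the disc one day after compound treatment. Incubation: 20°C, 75% rh, first 24–36 h in darkness, then 12 h daily light; discs kept on water agar.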

CCON(Cc1ccc(-c2noc(C(F)(F)F)n2)cc1)C(=O)C1(C)COC1 [Compound 1.623, N-ethoxy-3-methyl-N-[[4-[5-(trifluoromethyl)-1,2,4-oxadiazol-3-yl]phenyl]methyl]-oxetane-3-carboxamide]
≥ 80%: pest or weed control at 200 ppm [1] | inhibition of growth at 20 ppm [2] | pest or weed control at 200 ppm [3] | pest or weed control at 200 ppm [4]

O=C(ON(Cc1ccc(-c2noc(C(F)(F)F)n2)cc1)C(=O)C1CCC1)C1CCC1 [Compound 1.762, [cyclobutane-carbonyl-[[4-[5-(trifluoromethyl)-1,2,4-oxadiazol-3-yl]phenyl]methyl]-amino] cyclobutane-carboxylate]
≥ 80%: pest or weed control at 200 ppm [1] | inhibition of growth at 20 ppm [2] | pest or weed control at 200 ppm [3] | pest or weed control at 200 ppm [4]

O=C(C1CSC1)N(Cc1ccc(-c2noc(C(F)(F)F)n2)cc1)C1CC1 [Compound 1.104, N-cyclopropyl-N-[[4-[5-(trifluoromethyl)-1,2,4-oxadiazol-3-yl]phenyl]methyl]-thietane-3-carboxamide]
≥ 80%: pest or weed control at 200 ppm [1] | inhibition of growth at 20 ppm [2] | pest or weed control at 200 ppm [3] | pest or weed control at 200 ppm [4]

CCNC(=O)N(Cc1ccc(-c2noc(C(F)(F)F)n2)cc1)C1CC1 [Compound 3.34, 1-cyclopropyl-3-ethyl-1-[[4-[5-(trifluoromethyl)-1,2,4-oxadiazol-3-yl]phenyl]methyl]urea]
≥ 80%: pest or weed control at 200 ppm [1] | inhibition of growth at 20 ppm [2] | pest or weed control at 200 ppm [3] | pest or weed control at 200 ppm [4]

O=C(Cc1cccnc1)N(Cc1ccc(-c2noc(C(F)(F)F)n2)cc1)C1CC1 [Compound 1.102, N-cyclopropyl-2-(3-pyridyl)-N-[[4-[5-(trifluoromethyl)-1,2,4-oxadiazol-3-yl]phenyl]methyl]-acetamide]
≥ 80%: pest or weed control at 200 ppm [1] | inhibition of growth at 20 ppm [2] | pest or weed control at 200 ppm [3] | pest or weed control at 200 ppm [4]

C#CCN(Cc1ccc(-c2noc(C(F)(F)F)n2)cc1)C(=O)C(C)(C)C [Compound 1.182, 2,2-dimethyl-N-prop-2-ynyl-N-[[4-[5-(trifluoromethyl)-1,2,4-oxadiazol-3-yl]phenyl]methyl]-propanamide]
≥ 80%: pest or weed control at 200 ppm [1] | inhibition of growth at 20 ppm [2] | pest or weed control at 200 ppm [3] | pest or weed control at 200 ppm [4]

COC(C)C(=O)N(Cc1ccc(-c2noc(C(F)(F)F)n2)cc1)CC1CC1 (stereo not drawn) [Compound 1.245, N-(cyclopropylmethyl)-2-methoxy-N-[[4-[5-(trifluoromethyl)-1,2,4-oxadiazol-3-yl]phenyl]methyl]-propanamide]
≥ 80%: pest or weed control at 200 ppm [1] | inhibition of growth at 20 ppm [2] | pest or weed control at 200 ppm [3] | pest or weed control at 200 ppm [4]

COCCCC(=O)N(Cc1ccc(-c2noc(C(F)(F)F)n2)cc1)C1CC1 [Compound 1.136, N-cyclopropyl-4-methoxy-N-[[4-[5-(trifluoromethyl)-1,2,4-oxadiazol-3-yl]phenyl]methyl]-butanamide]
≥ 80%: pest or weed control at 200 ppm [1] | inhibition of growth at 20 ppm [2] | pest or weed control at 200 ppm [3] | pest or weed control at 200 ppm [4]

O=C(C1CCSCC1)N(Cc1ccc(-c2noc(C(F)(F)F)n2)cc1)C1CC1 [Compound 1.123, N-cyclopropyl-N-[[4-[5-(trifluoromethyl)-1,2,4-oxadiazol-3-yl]phenyl]methyl]-tetrahydrothiopyran-4-carboxamide]
≥ 80%: pest or weed control at 200 ppm [1] | inhibition of growth at 20 ppm [2] | pest or weed control at 200 ppm [3] | pest or weed control at 200 ppm [4]

C=CCN(Cc1ccc(-c2noc(C(F)(F)F)n2)cc1)C(=O)C1CCCO1 (stereo not drawn) [Compound 1.489, N-allyl-N-[[4-[5-(trifluoromethyl)-1,2,4-oxadiazol-3-yl]phenyl]methyl]-tetrahydrofuran-2-carboxamide]
≥ 80%: pest or weed control at 200 ppm [1] | inhibition of growth at 20 ppm [2] | pest or weed control at 200 ppm [3] | pest or weed control at 200 ppm [4]

CCC(=O)ON(Cc1ccc(-c2noc(C(F)(F)F)n2)cc1)C(=O)CC [Compound 1.760, [propanoyl-[[4-[5-(trifluoromethyl)-1,2,4-oxadiazol-3-yl)phenyl]methyl]-amino] propanoate]
≥ 80%: pest or weed control at 200 ppm [1] | inhibition of growth at 20 ppm [2] | pest or weed control at 200 ppm [3] | pest or weed control at 200 ppm [4]

O=C(CC1CC1)ON(Cc1ccc(-c2noc(C(F)(F)F)n2)cc1)C(=O)CC1CC1 [Compound 1.775, [(2-cyclo-propylacetyl)-[[4-[5-(trifluoromethyl)-1,2,4-oxadiazol-3-yl]phenyl]methyl]-amino] 2-cyclopropylacetale]
≥ 80%: pest or weed control at 200 ppm [1] | inhibition of growth at 20 ppm [2] | pest or weed control at 200 ppm [3] | pest or weed control at 200 ppm [4]

CCON(Cc1ccc(-c2noc(C(F)(F)F)n2)cc1)C(=O)C(C)OC (stereo not drawn) [Compound 1.629, N-ethoxy-2-methoxy-N-[[4-[5-(trifluoromethyl)-1,2,4-oxadiazol-3-yl]phenyl]methyl]-propanamide]
≥ 80%: pest or weed control at 200 ppm [1] | inhibition of growth at 20 ppm [2] | pest or weed control at 200 ppm [3] | pest or weed control at 200 ppm [4]

CON(Cc1ccc(-c2noc(C(F)(F)F)n2)cc1)C(=O)Cc1cccnc1 [Compound 1.28, N-methoxy-2-(3-pyridyl)-N-[[4-[5-(trifluoromethyl)-1,2,4-oxadiazol-3-yl]phenyl]methyl]-acetamide]
≥ 80%: pest or weed control at 200 ppm [1] | inhibition of growth at 20 ppm [2] | pest or weed control at 200 ppm [3] | pest or weed control at 200 ppm [4]

COCCCC(=O)OCCN(Cc1ccc(-c2noc(C(F)(F)F)n2)cc1)C(=O)CCCOC [Compound 1.725, 2-[4-methoxybutanoyl-[[4-[5-(trifluoromethyl)-1,2,4-oxadiazol-3-yl]phenyl]methyl]-amino]ethyl 4-methoxybutanoate]
≥ 80%: pest or weed control at 200 ppm [1] | inhibition of growth at 20 ppm [2] | pest or weed control at 200 ppm [3] | pest or weed control at 200 ppm [4]

CCC(C)N(Cc1ccc(-c2noc(C(F)(F)F)n2)cc1)C(=O)C1(C#N)CC1 (stereo not drawn) [Compound 1.399, 1-cyano-N-sec-butyl-N-[[4-[5-(trifluoromethyl)-1,2,4-oxadiazol-3-yl]phenyl]methyl]-cyclopropane-carboxamide]
≥ 80%: pest or weed control at 200 ppm [1] | inhibition of growth at 20 ppm [2] | pest or weed control at 200 ppm [3] | pest or weed control at 200 ppm [4]

COCC(=O)N(Cc1ccc(-c2noc(C(F)(F)F)n2)cc1)C(C)C [Compound 1.600, N-isopropyl-2-methoxy-N-[[4-[5-(trifluoromethyl)-1,2,4-oxadiazol-3-yl]phenyl]methyl]-acetamide]
≥ 80%: pest or weed control at 200 ppm [1] | inhibition of growth at 20 ppm [2] | pest or weed control at 200 ppm [3] | pest or weed control at 200 ppm [4]

COC(C)C(=O)N(Cc1ccc(-c2noc(C(F)(F)F)n2)cc1)OC (stereo not drawn) [Compound 1.81, N,2-dimethoxy-N-[[4-[5-(trifluoromethyl)-1,2,4-oxadiazol-3-yl]phenyl]methyl]-propanamide]
≥ 80%: pest or weed control at 200 ppm [1] | inhibition of growth at 20 ppm [2] | pest or weed control at 200 ppm [3] | pest or weed control at 200 ppm [4]
